Data reported in ChEMBL document CHEMBL4814009, “A new anti-austerity agent, 4'-O-methylgrynullarin from Derris scandens induces PANC-1 human pancreatic cancer cell death under nutrition starvation via inhibition of Akt/mTOR pathway” (2021).

Assays:
[1] = tested on: MIA PaCa-2; assay: Anti-austerity activity against human MIA PaCa-2 cells assessed as cell killing in nutrient deprived medium; type: functional
[2] = tested on: PSN1; assay: Anti-austerity activity against human PSN1 cells assessed as cell killing in nutrient deprived medium; type: functional
[3] = tested on: PANC-1; assay: Anti-austerity activity against human PANC-1 cells assessed as cell killing in nutrient deprived medium; type: functional
[4] = Anti-austerity activity against human KLM-1 cells assessed as cell killing in nutrient deprived medium; type: functional
[5] = target: Serine/threonine-protein kinase mTOR (Homo sapiens) (UniProt P42345); assay: Inhibition of mTOR in human PANC-1 cells assessed as reduction in phosphorylation at S2448 incubated for 6 hrs by Western blot analysis; type: cell-based; conditions: dose 1-10 µM
[6] = tested on: PANC-1; assay: Induction of apoptosis in human PANC-1 cells assessed as cell morphology by measuring red fluorescence incubated for 24 hrs in nutrient deprived medium by acridine orange and ethidium bromide dye based fluorescence microscopy analysis; type: functional; conditions: dose 1-5 µM
[7] = target: RAC-alpha serine/threonine-protein kinase (Homo sapiens) (UniProt P31749); assay: Inhibition of Akt in human PANC-1 cells assessed as reduction in phosphorylation at Ser473 incubated for 6 hrs by Western blot analysis; type: cell-based; conditions: dose 1-10 µM
[8] = tested on: PANC-1; assay: Inhibition of colony formation in human PANC-1 cells in nutrient rich DMEM medium measured treated for 24 hrs followed by replaced with fresh medium measured after 10 days by crystal violet staining based assay; type: functional, cell-based; conditions: dose 6.25-25 µM
[9] = tested on: PANC-1; assay: Antimigratory activity against human PANC1 cells assessed as wound area at 25 uM cultured in nutrient rich DMEM medium imaged every 10 mins for 24 hrs by quantitative real-time imaging based wound healing assay (reference value: 35%); type: functional

RAC-alpha serine/threonine-protein kinase (Homo sapiens), sequence (P31749 whole entry): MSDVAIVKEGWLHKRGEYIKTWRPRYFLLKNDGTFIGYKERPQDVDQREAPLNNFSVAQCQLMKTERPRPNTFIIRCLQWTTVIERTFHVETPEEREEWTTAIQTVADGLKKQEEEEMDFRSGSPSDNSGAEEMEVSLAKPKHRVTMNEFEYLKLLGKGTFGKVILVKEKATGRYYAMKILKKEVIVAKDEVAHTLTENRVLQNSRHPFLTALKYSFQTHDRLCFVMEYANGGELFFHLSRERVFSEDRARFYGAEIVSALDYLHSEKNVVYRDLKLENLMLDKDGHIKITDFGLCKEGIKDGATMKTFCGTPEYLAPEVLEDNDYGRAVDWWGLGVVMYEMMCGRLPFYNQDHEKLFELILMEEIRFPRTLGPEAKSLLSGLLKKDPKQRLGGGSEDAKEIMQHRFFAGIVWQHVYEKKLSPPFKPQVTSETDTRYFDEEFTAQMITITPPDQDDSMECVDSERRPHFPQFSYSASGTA

Row | SMILES | PC50 [1] [µM] | PC50 [2] [µM] | PC50 [3] [µM] | PC50 [4] [µM] | inhibition [5] | Activity [6] | inhibition [7] | inhibition [8] | Activity [9] [%]
1 | CC(C)=CCc1cc(-c2coc3cc(O)c(CC=C(C)C)c(O)c3c2=O)cc(O)c1O | 0.8 | 0.7 | 0.7 | 0.9 |  |  |  |  | 
2 | CC(C)=CCc1cc(-c2coc3c(CC=C(C)C)c(O)cc(O)c3c2=O)cc(O)c1O | 10.9 | 10.2 | 10 | 10.1 |  |  |  |  | 
3 | COc1c(O)cc(-c2coc3c(CC=C(C)C)c(O)cc(O)c3c2=O)cc1CC=C(C)C | 1.2 | 1.8 | 1 | 1.6 | Dose-Dependent Effect | Dose-Dependent Effect | Dose-Dependent Effect | Dose-Dependent Effect | 74
4 | COc1cc(C[C@H]2C(=O)OC[C@@H]2Cc2ccc(OC)c(OC)c2)ccc1O [ARCTIGENIN] | 1.9 | 0.7 | 0.7 | 0.8 |  |  |  |  | 
5 | CC(C)=CCc1cc(-c2coc3cc(O)c(CC=C(C)C)c(O)c3c2=O)ccc1O [LUPALBIGENIN] | 1.3 | 1.5 | 1 | 1 |  |  |  |  | 
